Assay results from article PMC9361468 (RSC Advances, 2022).
Read-outs that look alike come from different tables or passages of the source.

Columns and labels:
[1] = Experimental pKa, common substituted piperazines, mean ± SD of 3 experiments
[2] = Experimental pKa, PROTAC precursors, mean ± SD of 3 experiments

SMILES	% protonation state at pH = 7.5, NI: not-ionized state (PROTAC precursors)	% protonation state at pH = 7.5, P: single protonation state (PROTAC precursors)	pKa (physchem)	also measured
CN1CCN(C)CC1 [1,4-Dimethylpiperazine, reference compound]				% protonation state at pH = 7.5, DP: double protonation state (substituted piperazines): DP: 0.02%; % protonation state at pH = 7.5, NI: not-ionized state (substituted piperazines): NI: 21.59%; % protonation state at pH = 7.5, P: single protonation state (substituted piperazines): P: 78.38%; pKa (physchem; [1]): ~8
CC(=O)N1CCN(C)CC1 [1-Acetyl-4-methylpiperazine, reference compound]				% protonation state at pH = 7.5, NI: not-ionized state (substituted piperazines): NI: 73.36%; % protonation state at pH = 7.5, P: single protonation state (substituted piperazines): P: 26.64%; % protonation state at pH = 7.5, NI: not-ionized state (substituted piperazines, listed as 1-acetyl-4-methylpiperazine): 73.4%; pKa (physchem; [1]): 7.06
CC(=O)N1CCNCC1 [1-Acetyl-piperazine, reference compound]				% protonation state at pH = 7.5, NI: not-ionized state (substituted piperazines): NI: 21.99%; % protonation state at pH = 7.5, P: single protonation state (substituted piperazines): P: 78.01%; pKa (physchem; [1]): 8.05 ± 0.02
CCN1CCNCC1 [1-Ethylpiperazine, reference compound]				% protonation state at pH = 7.5, DP: double protonation state (substituted piperazines): DP: 2.18%; % protonation state at pH = 7.5, NI: not-ionized state (substituted piperazines): NI: 0.34%; % protonation state at pH = 7.5, P: single protonation state (substituted piperazines): P: 97.48%; pKa (physchem; [1]): 5.04 ± 0.03
CN1CCNCC1 [1-Methylpiperazine, reference compound]				% protonation state at pH = 7.5, DP: double protonation state (substituted piperazines): DP: 2.13%; % protonation state at pH = 7.5, NI: not-ionized state (substituted piperazines): NI: 0.32%; % protonation state at pH = 7.5, P: single protonation state (substituted piperazines): P: 97.55%; pKa (physchem; [1]): 9.16
Cc1sc2c(c1C)C(c1ccc(Cl)cc1)=N[C@@H](CC(=O)N1CCN(C)CC1)c1nnc(C)n1-2 [Compound 2]	NI: 69.61%	P: 30.39%	7.14 ± 0.02	
COc1ccc2c(c1)c(CC(=O)N1CCN(C)CC1)c(C)n2C(=O)c1ccc(Cl)cc1 [Compound 4]	NI: 78.79%	P: 21.20%	6.93 ± 0.03	
C#CCN1CCN(C(=O)C[C@@H]2N=C(c3ccc(Cl)cc3)c3c(sc(C)c3C)-n3c(C)nnc32)CC1 [Compound 5]	NI: 99.74%	P: 0.26%	4.91 ± 0.14	
O=C(c1cc(Cc2n[nH]c(=O)c3ccccc23)ccc1F)N1CCN(Cc2ccccc2)CC1 [Compound 7]	NI: 97.07%	P: 2.93%		pKa (physchem; [2]): 5.98 ± 0.01
CC(=O)CN1CCN(C(=O)c2ccc3c(c2)nc(Nc2cccc(Cl)c2)c2ccncc23)CC1 [Compound 8]	NI: 99.71%	P: 0.29%		
COc1ccc2c(c1)c(CC(=O)N1CCN(CC(C)=O)CC1)c(C)n2C(=O)c1ccc(Cl)cc1 [Compound 9]		P: 3.83%	5.35 ± 0.04	
CCOC(=O)CN1CCN(C(=O)Cc2c(C)n(C(=O)c3ccc(Cl)cc3)c3ccc(OC)cc23)CC1 [Compound 10]	NI: 99.9%		4.5 ± 0.06	
COc1ccc2c(c1)c(CC(=O)N1CCN(CCC(C)=O)CC1)c(C)n2C(=O)c1ccc(Cl)cc1 [Compound 12]	NI: 97.07%	P: 2.93%	5.98 ± 0.05	
COc1ccc2c(c1)c(CC(=O)N1CCN(CCCC(C)=O)CC1)c(C)n2C(=O)c1ccc(Cl)cc1 [Compound 13]	NI: 84.90%	P: 15.09%	6.75 ± 0.03	
COC(=O)CCCCN1CCN(C(=O)Cc2c(C)n(C(=O)c3ccc(Cl)cc3)c3ccc(OC)cc23)CC1 [Compound 14]	NI: 72.91%		7.07 ± 0.05	
COC(=O)CCCCCCN1CCN(C(=O)Cc2c(C)n(C(=O)c3ccc(Cl)cc3)c3ccc(OC)cc23)CC1 [Compound 15]	NI: 55.16%		7.41 ± 0.08	
COC(=O)CCC(=O)N1CCN(CCNC(=O)Cc2c(C)n(C(=O)c3ccc(Cl)cc3)c3ccc(OC)cc23)CC1 [Compound 16]	NI: 98.73%	P: 1.27%		pKa (physchem; [2]): 5.61
COc1ccc2c(c1)c(CC(=O)N1CCN(CCOCCO)CC1)c(C)n2C(=O)c1ccc(Cl)cc1 [Compound 17]	NI: 84.90%	P: 15.10%	6.75 ± 0.14	
COc1ccc2c(c1)c(CC(=O)N1CCN(CCC(=O)N[C@H](C(=O)N3C[C@H](O)C[C@H]3C(=O)N[C@@H](C)c3ccc(-c4scnc4C)cc3)C(C)(C)C)CC1)c(C)n2C(=O)c1ccc(Cl)cc1 [PROTAC-6]				% protonation state at pH = 7.5, NI: not-ionized state (PROTACs): NI: 98.33%
COc1ccc2c(c1)c(CC(=O)NCCCN1CCN(CCCNC(=O)CCC(=O)N[C@H](C(=O)N3C[C@H](O)C[C@H]3C(=O)N[C@@H](C)c3ccc(-c4scnc4C)cc3)C(C)(C)C)CC1)c(C)n2C(=O)c1ccc(Cl)cc1 [PROTAC-8]				% protonation state at pH = 7.5, DP: double protonation state (PROTACs): DP: 0.02%; % protonation state at pH = 7.5, NI: not-ionized state (PROTACs): NI: 32.86%; pKa (physchem; Experimental pKa, PROTACs, mean ± SD of 3 experiments): 3.94
COc1ccc2c(c1)c(CC(=O)N1CCN(CCOCCOCC(=O)N[C@H](C(=O)N3C[C@H](O)C[C@H]3C(=O)N[C@@H](C)c3ccc(-c4scnc4C)cc3)C(C)(C)C)CC1)c(C)n2C(=O)c1ccc(Cl)cc1 [PROTAC-10]				% protonation state at pH = 7.5, NI: not-ionized state (PROTACs): NI: 94.44%
C1CNCCN1 [Piperazine, reference compound]				% protonation state at pH = 7.5, DP: double protonation state: DP: 0.86%; % protonation state at pH = 7.5, NI: not-ionized state: NI: 0.67%; % protonation state at pH = 7.5, P: single protonation state: P: 98.48%
